Data as given in patent publication US12473250B2, “Molecular design of new antibiotics and antibiotic adjuvants against MCR strains” (priority 2019, dated 2025).
In brackets after ≈: the same amount, converted by molar mass.

How the values were obtained:
Type in all cases: cell-based
[1] = tested on: colistin resistant MCR (+) E. Coli strains; experiment: MIC, broth microdilution, compound alone; conditions: compound alone
Procedure: (§1) MIC experiments of the antimicrobial agents were determined by a modified broth microdilution method in accordance with the Clinical and Laboratory Standards Institute (CLSI) guidelines using 96 well culture plates. In brief, serial dilutions of all plates were prepared at different concentrations (μg). The inoculum suspension was prepared by adding isolated colonies from a 18-20 hours on TSA plate into phosphate buffer (0.31 mM, pH 7.2) or in water for injection (BBraun) and adjusting the suspension to a turbidity equivalent to 0.5 McFarland Standard. Each well contained a final bacterial concentration of approximately 5×10^5 colony forming units (CFU)/mL. The plate was covered and incubated at 35° C. for 24 hours. […] For the microdilution plates, turbidity in wells can be measured at OD600 using TECAN infinite M200Pro. MIC was determined as […] concentration that gives a 99 percent inhibition.

[2] = tested on: colistin resistant MCR (−) E. Cloacae strain 7023456439; experiment: MIC, broth microdilution, compound alone; conditions: strain 7023456439 E. Cloacae
Procedure: as §1

[3] = tested on: colistin resistant MCR (−) E. Coli strains; experiment: MIC, broth microdilution, compound alone
Procedure: as §1

[4] = tested on: colistin resistant MCR (−) E. Cloacae strain 7023456439; experiment: Synergy study: colistin MIC in the presence of compound; conditions: strain 7023456439 E. Cloacae
Procedure: (§2) The MICs of the individual drugs and LC compound in combinations were determined using the broth microdilution technique as recommended by the CLSI whereby the two anti-microbial agents were added in an equal amount. (e.g.: 50 μL of Colistin: 50 μL of LC compounds). Diluted media containing compounds and antibiotics will be serially diluted 2-fold, and LC compounds and antibiotics alone or in combination will be assayed at fixed synergy concentration. In all cases, the lowest concentration at which no visible growth occurred was be recorded to be the MIC value of individual and combined antibacterial agents. The results were obtained after 24 hours of incubation.

[5] = tested on: colistin resistant MCR (−) E. Coli strains; experiment: as above
Procedure: as §2

[6] = tested on: colistin resistant MCR (+) E. Coli strains; experiment: as above
Procedure: as §2

[7] = compound at 5 μg (Table 2a: 5 ug/ml)
[8] = strain 6083672926, MCR(−), compound at 5 μg (Table 2a: 5 ug/ml)
[9] = strain 7023446108, MCR(−), compound at 5 μg (Table 2a: 5 ug/ml)
[10] = strain 7033607097, MCR(−), compound at 5 μg (Table 2a: 5 ug/ml)
[11] = compound at 10 μg (Table 2a: 10 ug/ml)
[12] = strain 6083672926, MCR(−), compound at 10 μg (Table 2a: 10 ug/ml)
[13] = strain 7023446108, MCR(−), compound at 10 μg (Table 2a: 10 ug/ml)
[14] = strain 7033607097, MCR(−), compound at 10 μg (Table 2a: 10 ug/ml)
[15] = strain 6075066346, MCR(+), compound at 5 μg (Table 2a: 5 ug/ml)
[16] = strain 6083655967, MCR(+), compound at 5 μg (Table 2a: 5 ug/ml)
[17] = strain 7103531927, MCR(+), compound at 5 μg

SMILES | MIC ([1]; strain 6075066346, MCR (+)) [µg/mL] | MIC ([1]; strain 6083655967, MCR (+)) [µg/mL] | MIC ([1]; strain 6103645107, MCR (+)) [µg/mL] | MIC ([1]; strain 6123520276, MCR (+)) [µg/mL] | MIC ([1]; strain 7013177695, MCR (+)) [µg/mL] | MIC ([1]; strain 7023436560, MCR (+)) [µg/mL] | MIC ([1]; strain 7023444207, MCR (+)) [µg/mL] | MIC [2] [µg/mL] | MIC ([3]; strain 6083672926, MCR (−)) [µg/mL] | MIC ([3]; strain 7023446108, MCR (−)) [µg/mL] | MIC ([3]; strain 7033607097, MCR (−)) [µg/mL] | Colistin MIC in the presence of the compound [5, 8] [µg/mL] | Colistin MIC in the presence of the compound [5, 9] [µg/mL] | Colistin MIC in the presence of the compound [5, 10] [µg/mL] | Colistin MIC in the presence of the compound [4, 11] [µg/mL] | Colistin MIC in the presence of the compound [5, 12] [µg/mL] | Colistin MIC in the presence of the compound [5, 13] [µg/mL] | Colistin MIC in the presence of the compound [5, 14] [µg/mL] | MIC ([1]; strain 7103531927, MCR (+)) [µg/mL] | Colistin MIC in the presence of the compound [6, 15] [µg/mL] | further results
CC(C)=CCc1c(OCCCCN(CCCN(C)C)CCCN(C)C)ccc(C(=O)/C=C/c2ccc(OCCCCN(CCCN(C)C)CCCN(C)C)cc2)c1O [LC097] | 25 (≈ 31 µM) | 25 (≈ 31 µM) | 12.5 (≈ 15.5 µM) | 25 (≈ 31 µM) | 12.5 (≈ 15.5 µM) | 12.5 (≈ 15.5 µM) | 25 (≈ 31 µM) | >25 | 25 (≈ 31 µM) | 12.5 (≈ 15.5 µM) | 12.5 (≈ 15.5 µM) | 0.195 | 0.195 | 0.195 | – | – | – | – | – | – | Colistin MIC in the presence of the compound [4, 7]: >12.5 µg/mL
CC(C)=CCc1c(OCCCCN(C)CCCN(C)C)ccc(C(=O)/C=C/c2ccc(OCCCCN(C)CCCN(C)C)cc2)c1O [LC098] | 6.25 (≈ 9.4 µM) | 6.25 (≈ 9.4 µM) | 6.25 (≈ 9.4 µM) | 6.25 (≈ 9.4 µM) | 6.25 (≈ 9.4 µM) | 6.25 (≈ 9.4 µM) | 6.25 (≈ 9.4 µM) | >25 | 12.5 (≈ 18.8 µM) | 6.25 (≈ 9.4 µM) | 6.25 (≈ 9.4 µM) | 0.195 | 0.195 | 0.195 | – | – | – | – | – | – | Colistin MIC in the presence of the compound [4, 7]: 25 µg/mL
COC(=O)C(CCCNC(=N)N)NC(=O)COc1ccc(C2COc3c(ccc4c3C=CC(C)(C)O4)C2)c(OCC(=O)NC(CCCNC(=N)N)C(=O)OC)c1 (stereo not drawn) [LC106] | >25 | >25 | >25 | >25 | >25 | >25 | >25 | >25 | >25 | >25 | >25 | – | – | – | >25 | 12.5 | 6.25 | 6.25 | – | – | –
CC1(C)C=Cc2c(ccc3c2OCC(c2ccc(OCC(=O)NC(CCCNC(=N)N)C(N)=O)cc2OCC(=O)NC(CCCNC(=N)N)C(N)=O)C3)O1 (stereo not drawn) [LC127] | >50 | >50 | >50 | >50 | >50 | >50 | >50 | >50 | >50 | >50 | >50 | – | – | – | >12.5 | 12.5 | 6.25 | 6.25 | – | – | –
CC(C)=CCc1c(OCC(=O)NC(CCCNC(=N)N)C(N)=O)ccc(C(=O)/C=C/c2ccc(OCC(=O)NC(CCCNC(=N)N)C(N)=O)cc2)c1O (stereo not drawn) [LC131] | >50 | >50 | >50 | >50 | >50 | >50 | >50 | >50 | >50 | >50 | >50 | – | – | – | >12.5 | 12.5 | 6.25 | 6.25 | – | – | –
CCOC(=O)C(CCCNC(=N)N)NC(=O)COc1ccc(/C=C/C(=O)c2ccc(OCC(=O)NC(CCCNC(=N)N)C(=O)OCC)c(CC=C(C)C)c2O)cc1 (stereo not drawn) [LC137] | 12.5 (≈ 15.5 µM) | 12.5 (≈ 15.5 µM) | – | – | – | – | – | – | 12.5 (≈ 15.5 µM) | 12.5 (≈ 15.5 µM) | 12.5 (≈ 15.5 µM) | ≤0.0975 | ≤0.0975 | ≤0.0975 | – | – | – | – | 12.5 (≈ 15.5 µM) | – | synergy with colistin ([6]; against mcr-1 bacteria, in words): excellent synergy; Colistin MIC in the presence of the compound ([6]; strain 6083655967, MCR(+), compound at 3 μg): 0.78 µg/mL; Colistin MIC in the presence of the compound ([6]; strain 7103531927, MCR(+), compound at 3 μg): 0.39 µg/mL; Colistin MIC in the presence of the compound ([5]; strain 6083672926, MCR(−), compound at 3 μg): 6.25 µg/mL; Colistin MIC in the presence of the compound ([5]; strain 6083672926, MCR(−), compound at 4 μg): 0.195 µg/mL; Colistin MIC in the presence of the compound ([5]; strain 7023446108, MCR(−), compound at 3 μg): 0.39 µg/mL; Colistin MIC in the presence of the compound ([5]; strain 7023446108, MCR(−), compound at 4 μg): <0.0975 µg/mL; Colistin MIC in the presence of the compound ([5]; strain 7033607097, MCR(−), compound at 3 μg): 0.195 µg/mL; Colistin MIC in the presence of the compound ([5]; strain 7033607097, MCR(−), compound at 4 μg): <0.0975 µg/mL
CCN(CC)CCOc1ccc(/C=C/C(=O)c2ccc(OCCN(CC)CC)c(CC=C(C)C)c2O)cc1 [LC150] | >50 | >50 | – | – | – | – | – | – | 50 (≈ 95.7 µM) | 50 (≈ 95.7 µM) | 50 (≈ 95.7 µM) | 0.195 | 0.39 | 0.195 | – | – | – | – | >50 | 0.39 | Colistin MIC in the presence of the compound [6, 16]: 0.195 µg/mL; Colistin MIC in the presence of the compound [6, 17]: 0.39 µg/mL
CCN(CC)CCCOc1ccc(/C=C/C(=O)c2ccc(OCCCN(CC)CC)c(CC=C(C)C)c2O)cc1 [LC204] | >50 | >50 | – | – | – | – | – | – | >50 | >50 | >50 | 0.39 | 0.39 | 0.39 | – | – | – | – | >50 | 0.39 | Colistin MIC in the presence of the compound [6, 16]: 0.39 µg/mL; Colistin MIC in the presence of the compound [6, 17]: 0.39 µg/mL
CC(C)=CCc1c(OCCCN2CCNCCNCCNCC2)ccc(C(=O)/C=C/c2ccc(OCCCN3CCNCCNCCNCC3)cc2)c1O [LC206] | >50 | >50 | – | – | – | – | – | – | >50 | >50 | >50 | 0.39 | 0.39 | 0.39 | – | – | – | – | >50 | 0.39 | Colistin MIC in the presence of the compound [6, 16]: 0.39 µg/mL; Colistin MIC in the presence of the compound [6, 17]: 0.39 µg/mL
CC(C)=CCc1c(OCCC[N+](C)(C)C)ccc(C(=O)/C=C/c2ccc(OCCC[N+](C)(C)C)cc2)c1O [LC312] | 12.5 | 12.5 | 12.5 | 12.5 | 12.5 | 6.25 | 12.5 | >50 | 12.5 | 6.25 | 12.5 | – | – | – | >12.5 | <0.0975 | <0.0975 | <0.0975 | – | – | –
